# Experimental data reported in patent US5627203A, “Tricyclic oxime ethers” (Adir et Compagnie, priority 1994, dated 1997).
# How the values were obtained:
# 5-HT1 receptors = test: Displacement of 5-OH tryptamine at 5-HT1 receptors; type: binding; details: pig frontal cortex and striatum
# Protocol: (§1) A-2: Study of the binding of the compounds of the invention to the serotonin reuptake site as well as to 5-HT1, 5-HT1A, 5-HT1B, 5-HT1D, 5-HT2, 5-HT2C, 5-HT4 serotoninergic receptors.
# (§2) The binding of the compounds of the invention is measured in accordance with conventional methods.
# for 5-HT1 receptors, by the displacement of 5-OH tryptamine in pig frontal cortex and striatum, […]
# mouse = test: Anxiolytic activity: illuminated/darkened cages test on the mouse; type: in vivo; details: 15 mg/kg, i.p. route, 5 minutes
# Text: The anxiolytic effects of the compounds of the invention were studied in accordance with the illuminated/darkened cages test on the mouse (Crawley et al. (1981), Pharmacol. Biochem. Behav., 15, pp 695-699).
# The test uses two cages of equal size (20×20×14 cm) made of PVC. One is strongly illuminated by a 100 W bulb ("cold" light) and the other is darkened. The two cages are separated from one another by a small opaque tunnel (5×7 cm). The mice are introduced individually into the tunnel and, once they have entered the darkened cage for the first time, a recording is made over a period of 5 minutes, by means of pads connected to a computer, of the time spent by the animals in the illuminated cage as well as the number of transfers between the darkened cage and the illuminated cage. Each experimental group comprises a minimum of 15 animals.
# 5-HT1B receptors = biological target: T1, 5-HT1B receptors (Rattus norvegicus, UniProt P28564); test: Displacement of 5-hydroxytryptamine at 5-HT1B receptors; type: binding; details: rat cortex, striatum, and globus pallidus homogenates
# T1 construct: rat cortex, striatum, and globus pallidus homogenates; from tissue; host or cells: rat cortex, striatum and globus pallidus
# T1 sequence (P28564 whole entry): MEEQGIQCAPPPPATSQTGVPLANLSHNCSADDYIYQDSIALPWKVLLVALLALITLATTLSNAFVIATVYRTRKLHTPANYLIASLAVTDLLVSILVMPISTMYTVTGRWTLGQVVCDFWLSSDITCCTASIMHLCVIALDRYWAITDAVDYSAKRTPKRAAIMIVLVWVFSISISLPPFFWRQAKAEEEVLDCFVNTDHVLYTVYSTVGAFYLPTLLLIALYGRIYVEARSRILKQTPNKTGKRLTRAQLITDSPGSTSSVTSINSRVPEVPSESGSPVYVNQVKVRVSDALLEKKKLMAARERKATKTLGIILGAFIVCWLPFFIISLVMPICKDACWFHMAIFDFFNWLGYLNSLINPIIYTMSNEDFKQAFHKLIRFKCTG
# Protocol: as §1, §2
# for 5-HT1B receptors, by the displacement of 5-hydroxytryptamine in rat cortex, striatum, and globus pallidus homogenates, […]
# serotonin reuptake site = biological target: T2, serotonin reuptake site (Rattus norvegicus, UniProt P31652); test: Displacement of 3H-paroxetine at the serotonin reuptake site; type: binding; details: rat brain without cerebellum, read-out: IC50, serotonin reuptake sites
# T2 construct: rat brain from which the cerebellum has been removed; from tissue; host or cells: rat brain without cerebellum
# T2 sequence (P31652 whole entry): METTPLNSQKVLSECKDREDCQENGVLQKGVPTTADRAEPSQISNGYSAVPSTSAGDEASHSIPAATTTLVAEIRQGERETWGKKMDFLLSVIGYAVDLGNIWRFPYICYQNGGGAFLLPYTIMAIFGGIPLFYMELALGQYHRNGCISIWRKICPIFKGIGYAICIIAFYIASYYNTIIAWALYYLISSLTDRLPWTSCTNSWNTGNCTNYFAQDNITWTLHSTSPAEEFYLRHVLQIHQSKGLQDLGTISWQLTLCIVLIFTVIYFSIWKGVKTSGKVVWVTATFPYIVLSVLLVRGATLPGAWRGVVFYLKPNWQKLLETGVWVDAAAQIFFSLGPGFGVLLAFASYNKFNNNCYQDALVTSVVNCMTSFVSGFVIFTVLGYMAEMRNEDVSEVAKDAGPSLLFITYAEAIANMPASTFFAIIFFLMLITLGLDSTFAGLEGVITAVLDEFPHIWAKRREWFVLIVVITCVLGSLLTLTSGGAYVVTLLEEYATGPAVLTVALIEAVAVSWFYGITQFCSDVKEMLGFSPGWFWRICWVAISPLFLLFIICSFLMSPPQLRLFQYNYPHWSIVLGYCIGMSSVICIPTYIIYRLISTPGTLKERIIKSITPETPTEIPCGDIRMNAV
# Protocol: as §1, §2
# for the serotonin reuptake site, by the displacement of ^3 H-paroxetinein rat brain from which the cerebellum has been removed, […]
# 5-HT1A receptors = biological target: T3, 5-HT1A receptors (Rattus norvegicus, UniProt P19327); test: Displacement of 8-OH-DPAT at 5-HT1A receptors; type: binding; details: rat hippocampus homogenates
# T3 construct: rat hippocampus homogenates; from tissue; host or cells: rat hippocampus
# T3 sequence (P19327 1-422): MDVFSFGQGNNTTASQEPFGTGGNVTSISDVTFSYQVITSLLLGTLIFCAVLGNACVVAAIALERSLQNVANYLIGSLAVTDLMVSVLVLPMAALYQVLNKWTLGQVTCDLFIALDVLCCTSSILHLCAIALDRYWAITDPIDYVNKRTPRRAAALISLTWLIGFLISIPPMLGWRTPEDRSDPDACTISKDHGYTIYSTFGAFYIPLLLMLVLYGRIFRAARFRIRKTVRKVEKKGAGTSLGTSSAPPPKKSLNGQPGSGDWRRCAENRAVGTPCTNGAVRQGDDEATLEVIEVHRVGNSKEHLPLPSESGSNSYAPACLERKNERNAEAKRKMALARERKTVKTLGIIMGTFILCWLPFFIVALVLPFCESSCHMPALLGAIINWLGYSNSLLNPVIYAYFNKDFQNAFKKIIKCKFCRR
# Protocol: as §1, §2
# for 5-HT1A receptors, by the displacement of 8-OH-DPAT in rat hippocampus homogenates, […]
# 5-HT2 receptors = biological target: T4, 5-HT2 receptors (Rattus norvegicus, UniProt P14842); test: Displacement of aminoiodoketaneserine at 5-HT2 receptors; type: binding; details: rat frontal cortex homogenates
# T4 construct: rat frontal cortex homogenates; from tissue; host or cells: rat frontal cortex
# T4 sequence (P14842 whole entry): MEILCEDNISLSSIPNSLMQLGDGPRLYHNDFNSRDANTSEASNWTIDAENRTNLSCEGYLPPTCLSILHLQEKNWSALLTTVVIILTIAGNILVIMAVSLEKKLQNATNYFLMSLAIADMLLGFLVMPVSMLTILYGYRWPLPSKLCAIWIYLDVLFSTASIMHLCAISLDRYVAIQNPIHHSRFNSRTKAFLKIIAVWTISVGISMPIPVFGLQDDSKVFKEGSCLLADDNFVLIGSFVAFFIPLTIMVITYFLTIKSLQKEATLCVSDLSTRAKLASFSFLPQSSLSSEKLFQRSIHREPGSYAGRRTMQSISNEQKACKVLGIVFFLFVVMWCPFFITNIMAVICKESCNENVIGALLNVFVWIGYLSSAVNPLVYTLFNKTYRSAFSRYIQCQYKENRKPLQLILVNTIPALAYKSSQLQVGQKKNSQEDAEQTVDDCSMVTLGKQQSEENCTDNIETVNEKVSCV
# Protocol: as §1, §2
# for 5-HT2 receptors, by the displacement of aminoiodoketaneserine in rat frontal cortex homogenates, […]
# 5-HT3 receptors = biological target: T5, 5-HT3 receptors (Rattus norvegicus, UniProt P35563); test: Displacement of 3H-zacopride at 5-HT3 receptors; type: binding; details: 0.3-0.4 nM 3H-zacopride, rat area postrema homogenates, pH 7.4, 25° C., 30 minutes
# T5 construct: rat area postrema homogenates; from tissue; host or cells: rat area postrema
# T5 sequence (P35563 24-483): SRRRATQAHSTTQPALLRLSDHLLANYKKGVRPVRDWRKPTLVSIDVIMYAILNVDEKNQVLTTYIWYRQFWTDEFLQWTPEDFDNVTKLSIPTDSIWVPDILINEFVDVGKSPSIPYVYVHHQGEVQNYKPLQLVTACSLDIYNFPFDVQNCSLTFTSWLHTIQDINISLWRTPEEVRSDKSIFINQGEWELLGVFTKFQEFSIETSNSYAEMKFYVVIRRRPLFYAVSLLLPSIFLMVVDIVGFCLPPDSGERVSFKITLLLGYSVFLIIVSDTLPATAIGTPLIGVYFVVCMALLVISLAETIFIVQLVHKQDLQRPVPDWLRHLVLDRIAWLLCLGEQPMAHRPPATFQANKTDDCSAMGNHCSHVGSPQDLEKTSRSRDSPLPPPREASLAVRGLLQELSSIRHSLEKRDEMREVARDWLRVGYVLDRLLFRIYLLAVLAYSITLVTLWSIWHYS
# Protocol: A-1: Study of the binding of the compounds of the invention to 5-HT3 serotoninergic receptors
# The binding of the compounds of the invention to 5-HT3 receptors was determined for each compound by measuring the displacement of ^3 H-zacopride (specific ligand for 5-HT3 receptors) in rat area postrema homogenates.
# Aliquot amounts (50-100 μl) of a membrane suspension (2.5-5.0 mg of protein/cm^3) are incubated for 30 minutes at 25° C. in a Tris-HCl buffer, 25 mM, pH 7,4, in the presence of 0.3-0.4 nM 3^H -zacopride (83 ci/mmol) (total volume: 0.5 cm^3). The incubation is terminated by filtering the samples through Whatman GF/B filters which are then washed and dried. The radioactivity retained on the filters is finally calculated by spectrometry in liquid medium (Aquasol). The non-specific binding is evaluated under the same conditions using samples containing in addition 1 μM of ondansetron (5-HT3 antagonist). The displacement curves obtained by adding increasing concentrations of a test compound to the incubation medium are analysed to determine the affinity of the test compounds for 5-HT3 receptors.
# 5-HT2C receptors = biological target: T6, 5-HT2C receptors (Rattus norvegicus, UniProt P08909); test: Displacement of N-methylmesulergine at 5-HT2C receptors; type: binding; details: rat frontal cortex and hippocampus homogenates
# T6 construct: rat frontal cortex and hippocampus homogenates; from tissue; host or cells: rat frontal cortex and hippocampus
# T6 sequence (P08909 33-460): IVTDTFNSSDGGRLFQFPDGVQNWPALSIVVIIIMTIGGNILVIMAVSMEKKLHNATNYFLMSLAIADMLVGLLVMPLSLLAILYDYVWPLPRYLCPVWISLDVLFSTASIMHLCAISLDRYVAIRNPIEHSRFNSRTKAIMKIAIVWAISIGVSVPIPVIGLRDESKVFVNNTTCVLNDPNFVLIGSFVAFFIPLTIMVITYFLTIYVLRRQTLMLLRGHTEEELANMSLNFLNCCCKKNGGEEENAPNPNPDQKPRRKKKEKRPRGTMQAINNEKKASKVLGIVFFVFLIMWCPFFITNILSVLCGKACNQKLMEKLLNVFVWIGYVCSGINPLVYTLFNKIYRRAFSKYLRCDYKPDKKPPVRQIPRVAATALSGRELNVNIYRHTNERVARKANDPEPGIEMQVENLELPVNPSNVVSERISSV
# Protocol: as §1, §2
# for 5-HT2C receptors, by the displacement of N-methylmesulergine in rat frontal cortex and hippocampus homogenates, […]
# 5-HT1D receptors = test: Displacement of 5-OH-tryptamine at 5-HT1D receptors; type: binding; details: rat cortex, striatum and globus pallidus homogenates
# Protocol: as §1, §2
# for 5-HT1D receptors, by the displacement of 5-OH-tryptamine in rat cortex, striatum and globus pallidus homogenates, […]
smiles,measurement,setting,value
Cc1csc2c1-n1cccc1/C2=N/OCC(C)N(C)C (stereo not shown) [Example 22],IC50,5-HT1 receptors,6.9 µM
same,"Number of transfers, percentage compared with the control group",mouse,+76%
same,"Time spent in the illuminated cage, percentage compared with the control group",mouse; *p < 0.5,+92%
same,IC50,5-HT1B receptors,11 µM
same,IC50,serotonin reuptake site,0.11 µM
same,IC50,5-HT1A receptors,9 µM
same,IC50,5-HT2 receptors,11 µM
same,IC50,5-HT3 receptors,0.001 µM
same,IC50,5-HT2C receptors,1.6 µM
same,IC50,5-HT1D receptors,6.4 µM
